Data on 9 molecules can be found in EP0329295A1, “Renin inhibiting peptides with polar end groups” (THE UPJOHN COMPANY, priority 1988, dated 1989).

pIC50: −log10 of the molar value. *1 amine or outer side, *2 acyl side, *3 side chain or, on linkers, in order; H or OH if unused. Where a SMILES comes first, the peptide text is derived from it. [ ]: non-standard residue; d: D form. The star is where a group is joined. NH(β-GlcNAc) = CC(=O)N[C@@H]1[C@@H](O)[C@H](O)[C@@H](CO)O[C@H]1N*; X1 = CC(C)C[C@H](N[*:1])[C@@H](O)C[C@H](C(=O)[*:2])C(C)C; X2 = OC[C@H]1O[C@@H](N*)[C@@H](O)[C@@H](O)[C@@H]1O; GlcN = OC[C@H]1OC(O)[C@H](N*)[C@@H](O)[C@@H]1O; NMeH = CN[C@@H](Cc1c[nH]cn1)C(=O)O; NHCH2(2-pyridyl) = c1ccc(CN*)nc1; Boc = CC(C)(C)OC(=O)*; CO = O=C([*:1])[*:2]

By pIC50 is commonly meant the IC50 on a negative log10 scale, so that one unit is a factor of ten. Low readings indicate a large IC50, high ones a small IC50. By IC50 is commonly meant the concentration at which inhibition is half-maximal. Read a low IC50 as higher potency.

The target of the first experiment is T1, renin (Homo sapiens, UniProt P00797).
T1 sequence (P00797 67-406): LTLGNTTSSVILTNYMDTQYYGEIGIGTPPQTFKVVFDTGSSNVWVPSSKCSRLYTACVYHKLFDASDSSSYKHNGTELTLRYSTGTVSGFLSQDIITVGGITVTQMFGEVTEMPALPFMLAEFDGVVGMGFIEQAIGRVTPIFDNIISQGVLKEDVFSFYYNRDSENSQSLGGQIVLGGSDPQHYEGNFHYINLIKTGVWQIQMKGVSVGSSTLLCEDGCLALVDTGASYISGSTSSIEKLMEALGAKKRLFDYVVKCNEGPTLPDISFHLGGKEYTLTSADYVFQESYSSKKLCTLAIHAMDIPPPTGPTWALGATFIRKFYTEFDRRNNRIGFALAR
Nature of the experiment: renin inhibitory activity (IC50), determined as described in EP 0173481, pages 103-105. Format: biochemical. The note with it: renin inhibition; values given in molar units. An excerpt: The determination of renin inhibitory activity of the compounds of the present invention (ICso's) are well known to one of ordinary skill in the art, as, for example, described in published European application 0173481, published 5 March 1986, pages 103-105.
Turning to `CC(C)[C@H](C[C@H](O)[C@H](CC1CCCCC1)NC(=O)[C@H](Cc1c[nH]cn1)N(C)C(=O)[C@H](Cc1ccccc1)NC(=O)[C@@H]1CCCN1C(=O)N[C@H]1C(O)O[C@H](CO)[C@@H](O)[C@@H]1O)C(=O)NC[C@H](C)O` (relative stereo) [Example 29, [1 S-[1 R*,2R*,4R*(R*)]]-1-[[(2-Deoxy-D-glucopyranos-2-yl)amino]carbonyl]-L-Prolyl-L-phenylalaryl-N-[1-(cyclohexylmethyl)-2-hydroxy-4-[[(2-hydroxypropyl)-amino]carbonyl]-5-methylhexyl]-Nα-methyl-L-histidinamide], the pIC50 was 8.82.
Consider `COC(=O)CC[C@H](NC(=O)[C@@H](C[C@H](O)[C@H](CC1CCCCC1)NC(=O)[C@H](Cc1c[nH]cn1)N(C)C(=O)[C@H](Cc1ccccc1)NC(=O)[C@@H]1CCCN1C(=O)NC(CO)(CO)CO)C(C)C)C(=O)NCc1ccccn1` (relative stereo) [Example 32, [1 S-[1R*,2R*,4R*(R*)]]-1-[[[2-Hydroxy-1,1-bis(hydroxymethyl)ethyl]amino]carbonyl]-L-prolyl-L-phenylalaryl-N-[1-(cyclohexylmethyl)-2-hydroxy-4-[[[4-methoxy-4-oxo-1-[[(2-pyridinylmethyl)amino]carbonyl]-butyl]-amino]carbonyl]-5-methyl-hexyl]-Nα-methyl-L-histidinamide], for which the pIC50 is 9.52.
On the same count and under the same terms, under `CC[C@H](C)[C@H](NC(=O)[C@@H](C[C@H](O)[C@H](CC(C)C)NC(=O)[C@H](Cc1c[nH]cn1)N(C)C(=O)[C@H](Cc1ccccc1)NC(=O)[C@@H]1CCCN1C(=O)N[C@H]1C(O)O[C@H](CO)[C@@H](O)[C@@H]1O)C(C)C)C(=O)NCc1ccccn1` (stereo partly drawn) [Example 9, N-(Glucosaminocarbonyl)-Pro-Phe-N(Me)His-LVA-lie-AMP] ({GlcN-CO}-PF[NMeH][X1]I-{NHCH2(2-pyridyl)}) stands 9.31; under `CC[C@H](C)[C@H](NC(=O)[C@@H](C[C@H](O)[C@H](CC(C)C)NC(=O)[C@H](Cc1c[nH]cn1)N(C)C(=O)[C@H](Cc1ccccc1)NC(=O)[C@@H]1CCCN1C(=O)[C@H](CC(=O)N[C@@H]1O[C@H](CO)[C@@H](O)[C@H](O)[C@H]1NC(C)=O)NC(=O)OC(C)(C)C)C(C)C)C(=O)NCc1ccccn1` [Example 36, β-N-AcGLc-α-N-Boc-Asn-Pro-Phe-N-MeHis-Leu[CH(OH)CH2]-Val-Ile-AMP] (Boc-D(NH(β-GlcNAc))PF[NMeH][X1]I-{NHCH2(2-pyridyl)}), 9.39; under `CC[C@H](C)[C@H](NC(=O)[C@@H](C[C@H](O)[C@H](CC(C)C)NC(=O)[C@H](Cc1c[nH]cn1)N(C)C(=O)[C@H](Cc1ccccc1)NC(=O)[C@@H]1CCCN1C(=O)[C@H](CC(=O)N[C@@H]1O[C@H](CO)[C@@H](O)[C@H](O)[C@@H]1O)NC(=O)OC(C)(C)C)C(C)C)C(=O)NCc1ccccn1` [Example 38, β-Man-α-N-Boc-Asn-Pro-Phe-N-MeHis-Leu[CH(OH)CH2]-Val-Ile-AMP] (Boc-D(X2)PF[NMeH][X1]I-{NHCH2(2-pyridyl)}), 9.26.

The same experiment, now with this note: renin inhibition; values in nM.
Consider `CC(C)C[C@H](O)[C@H](O)[C@H](CC1CCCCC1)NC(=O)[C@H](Cc1c[nH]cn1)N(C)C(=O)[C@H](Cc1ccccc1)NC(=O)[C@@H]1CCCN1C(=O)NC(CO)(CO)CO` (relative stereo) [Example 12, L-Histidinamide, 1-[[[2-hydroxy-1,1-bis(hydroxymethyl)ethyl]amino]carbonyl]-L-prolyl-L-phenylalanyl-N-[1 (cyclohexylmethyl)-2,3-dihydroxy-5-methylhexyl]-Nα-methyl-, [1 S-(1 R*,2S*,3R*)-]-], for which inhibition was half-maximal at 0.26 nM (IC50).
Take `CC(C)C[C@H](O)[C@H](O)[C@H](CC1CCCCC1)NC(=O)[C@H](Cc1c[nH]cn1)N(C)C(=O)[C@H](Cc1ccccc1)NC(=O)[C@@H]1CCCN1C(=O)N[C@H]1C(O)O[C@H](CO)[C@@H](O)[C@@H]1O` (relative stereo) [Example 13, L-Histadinamide, 1-([(2-deoxy-D-glucopyranos-2-yl)amino]carbonyl]-L-prolyl-L-phenylalanyl-N-[1-(cyclohexylmethyl)-2,3-dihydroxy-5-methylhexyl]-N.aIpha.-methyl-, [1 S-(1 R*,2S*,3R(*)]]-]: the IC50 is 2.4 nM. This IC50 lies about 9.2-fold higher than the previous one.
Same read-out and setting: next, `COc1ccc(C[C@H](NC(=O)[C@@H]2CCCN2C(=O)N[C@H]2C(O)O[C@H](CO)[C@@H](O)[C@@H]2O)C(=O)N[C@@H](Cc2c[nH]cn2)C(=O)N[C@@H](CC2CCCCC2)[C@@H](O)[C@@H](O)CC(C)C)cc1` (relative stereo) [Example 15]: 2.3 nM; `COc1ccc(C[C@H](NC(=O)[C@@H]2CCCN2C(=O)NC(CO)(CO)CO)C(=O)N[C@@H](Cc2c[nH]cn2)C(=O)N[C@@H](CC2CCCCC2)[C@@H](O)[C@@H](O)CC(C)C)cc1` [Example 14, L-Histidinamide, 1-[[[2-hydroxy-1,1-bis(hydroxymethyl)ethyl]amino]carbonyl]-L-prolyl-O-methyl-L-tyrosyl-N-[1-(cyclohexylmethyl)-2,3-dihydroxy-5-methylhexyl]-, [1S-(1R*,2S*,3R*)]-]: 0.21 nM.
